Experimental data published in patent US12138236B2, “Compositions comprising N-Acetyl Methyl GABA and related methods” (MBI Distributing, priority 2020, dated 2024).
Where “and” joins values, the source holds several entries; their conditions need not be identical. Identical values can stand only once.

Experiments:
[1] = Single human subject's report on overnight sleep after self-administering N-Acetyl Methyl GABA (Example 2); type: in vivo; design: key to Sleep Quality / Restfulness/Wakefulness / Mental Clarity/Memory / Mood / Anti-inflammatory Action (decrease in pain): 1: Very Poor; 2: Poor; 3: Fair; 4: Good; 5: Excellent
Experimental: Table 2 reports a human subject's sleep quality, restfulness/wakefulness, mental clarity/memory, mood, and inflammation and pain reduction after 18 overnight sleep periods over the span of 15 weeks (October-January, as shown in Table 2), with 15 of the 18 nights occurring before the first administration of N-Acetyl Methyl GABA to the subject. Table 3 reports the subject's sleep quality and other parameters after self-administering 300 mg of N-Acetyl Methyl GABA before an overnight sleep period, 40 times over the span of 9 weeks (November-January, as shown in Table 3). Data in Tables 2 and 3 are based on a rating of sleep quality and other parameters from 1 to 5, where 1 is Very Poor, 2 is Poor, 3 is Fair, 4 is Good, and 5 is Excellent. Each morning after waking, the subject reported on the sleep quality, restfulness/wakefulness, mental clarity/memory, mood, and inflammation and pain reduction they felt, and/or with regard to sleep quality, used information from a “Sleep Cycle” app on a cell phone (Sleep Cycle, www.sleepcycle.com, Gothenburg, Sweden).
For 14 of the days reported in Table 2, before the first administration of N-Acetyl Methyl GABA, data is from a sleep app on a cell phone device. Other data in Table 2 is from the subject's experience as reported for a given sleep period. The data before first administration of N-Acetyl Methyl GABA provides a baseline of sleep patterns for the subject with no sleep aid. The average sleep quality in the subject before a first administration of N-Acetyl Methyl GABA was 73.8%. The average percentage of sleep quality improved after administration of N-Acetyl Methyl GABA according to this invention, with average sleep quality at 80.4%.

[2] = Daytime study of N-Acetyl Methyl GABA composition without melatonin, 19 subjects (Example 6); type: in vivo, human; conditions: one value per patient (1-19), over baseline, 2 teaspoons (8 g) orally once daily, 14 days
Experimental: The Purpose of this study was to quantify the effectiveness of N-Acetyl Methyl GABA on FAM MS (Fatigue, Anxiety, Mood, Mind, Stress) and related symptoms and qualities. (Mind refers to mental clarity, memory and focus).
Due to the above-described effects of N-Acetyl Methyl GABA on sleep and relaxation, a sleep quality section was added to see how a “daytime” version of N-Acetyl Methyl GABA (administered without melatonin) assisted with sleep quality for daytime patients. This was also beneficial for patients that prefer not to take melatonin.
Study participants: 19 subjects
7 day pre-study symptomology (no N-Acetyl Methyl GABA taken) to record a baseline of patient symptoms.
14 day study symptomology (taking N-Acetyl Methyl GABA) to record patient symptoms.
Preferred subject would have minimum two of the following symptoms prior to study: FAMMS (Fatigue, Anxiety, Mood, Mind, Stress) (Mind defines mental clarity, memory and focus issues), sleep imbalance, insomnia, daytime energy issues.
Subjects were asked to not use any additional mind/body stress relief or natural supplements other than the N-Acetyl Methyl GABA composition (“GabaSorb® Daytime”) during the 14 day study.
Subjects were asked to take 2 teaspoons of the liquid N-Acetyl Methyl GABA composition (Gabasorb Daytime) daily in the morning or early afternoon if they suffered from two or more symptoms listed in the protocol.
The N-Acetyl Methyl GABA composition described in Table 11 was taken orally by each patient once daily.
Subjects were administered 2 teaspoons (8 g) of the liquid N-Acetyl Methyl GABA composition described above.
Ratings were made each day during the study period (7 days pre-administration, 14-days during N-Acetyl Methyl GABA administration), based on a scale of 1 to 5. Improvements are shown by increased ratings over baseline in qualities such as Stress, Anxiety, Mental Clarity and Memory, Mood, Daytime Energy, and Sleep Quality for each patient in Table 12. Patient gender and age for Table 12 are as follows: Patient 1 (P1)[…], P2[…], P3[…]; P4[…], P5[…], P6[…], P7[…], P8[…], P9[…], P10[…], P11[…], P12[…], P13[…], P14:M/22, P15:F/23, P16:M/50, P17:M/19, P18:F/44, P19:F27.

[3] = Administration of N-Acetyl Methyl GABA to other human subjects, subject reports; type: in vivo
Experimental: Subjects report more natural sleep without the morning grogginess associated with many sleep aids. Subjects report they slept all night long without waking. […] Subjects report the mind is clear and the attitude is positive after N-Acetyl Methyl GABA was administered prior to an overnight sleep period. Without being bound by theory, this may be due to anxiolytic effects of N-Acetyl Methyl GABA.

[4] = average of 40 nights, scale 1 to 5, without: 2.2
[5] = daily rating 1 to 5 after overnight sleep, 300 mg before sleep, one subject
[6] = sum of 40 daily ratings, 300 mg

## COC(=O)CCCNC(C)=O [N-Acetyl Methyl GABA]
[1]; 300 mg before overnight sleep, 40 times over 9 weeks
  side effects reported by the subject: No side effects
[1]; 2.1/1.7*100%
  Inflammation/pain improved, percent of average score without: about 125%
[1]; 2.2/2.2*100%
  Mental clarity/memory improved, percent of average score without: 100%
[1]; 2.5/1.9*100%
  Mood improved, percent of average score without: about 132%
[1]; 2.5/2.2*100%
  Sleep quality improved, percent of average score without: approximately 115%
[1]; 2.6/2*100%
  Restfulness/wakefulness improved, percent of average score without: 130%
[1]; after administration, before first administration 73.8%, sleep app on cell phone
  average sleep quality (percentage): 80.4%
[1]; after waking from the sleep periods
  morning or mid-afternoon anxiety, subject report: no longer feeling morning or mid-afternoon anxiety
[1]; average of 40 nights, scale 1 to 5, without: 1.7
  Anti-inflammatory Action (decrease in pain), average score with N-Acetyl Methyl GABA: 3.8
[1]; average of 40 nights, scale 1 to 5, without: 1.9
  Mood, average score with N-Acetyl Methyl GABA: 4.4
[1]; average of 40 nights, scale 1 to 5, without: 2
  Restfulness/Wakefulness, average score with N-Acetyl Methyl GABA: 4.6
[1]; [4]
  Mental Clarity/Memory, average score with N-Acetyl Methyl GABA: 4.4
  Sleep Quality, average score with N-Acetyl Methyl GABA: 4.7
[1]; [5]
  Anti-inflammatory Action (decrease in pain): 3 and 4 and 2 and 5
  Mental Clarity/Memory: 3 and 4 and 5
  Mood: 3 and 4 and 5
  Restfulness/Wakefulness: 3 and 4 and 5
[1]; daily rating 1 to 5 after overnight sleep, 300 mg self-administered before sleep, one subject
  Sleep Quality: 4 and 5
[1]; [6]
  Anti-inflammatory Action (decrease in pain), Total Score, 40 days: 153
  Mental Clarity/Memory, Total Score, 40 days: 177
  Mood, Total Score, 40 days: 176
  Restfulness/Wakefulness, Total Score, 40 days: 183
  Sleep Quality, Total Score, 40 days: 190
[2]
  Anxiety Reduced (%): 35% and 32% and 22% and 40% (2×) and 46% and 107% and 71% (2×) and 126% and 57% and 56% (2×) and 63% (3×) and 52% and 95% and 89%
  Daytime Energy Improved (%): 40% and 32% and 88% (2×) and 29% and 57% and 74% and 36% and 42% and 23% and 17% and 22% (2×) and 43% and 20% and 11% and 0% and 33% (2×)
  Mental Clarity/Memory Improved (%): 57% and 55% and 72% and 43% and 100% and 82% and 52% and 56% and 131% and 70% and 59% and 23% and 25% and 33% (2×) and 71% and 16% and 30% and 40%
  Mood Improved (%): 20% and 94% and 39% and 68% and 100% (4×) and 120% and 152% and 88% and 129% and 107% and 85% and 65% and 60% and 69% (2×) and 112%
  Sleep Quality Improved (%): 78% (2×) and 95% and 118% and 150% and 233% and 62% (2×) and 77% and 93% and 57% and 81% and 52% (3×) and 75% and 87% and 79% and 56%
  Stress Reduced (%): 48% and 45% and 36% (2×) and 33% and 72% and 17% and 25% and 40% (3×) and 78% and 69% and 27% and 56% and 85% and 41% and 52% and 55%
[3]; administered prior to a sleep period
  sleep quality, subjects' report: improved sleep quality
[3]; human, in vivo
  tolerability in other human subjects: well tolerated
